Experimental data from publication PMC6302903, “Protein and Chemical Determinants of BL-1249 Action and Selectivity for K2P Channels” (ACS Chemical Neuroscience, 2018).

Target: T1, K2P2.1(TREK-1) (Mus musculus, UniProt P97438)
T1 sequence (P97438 1-411 isoform P97438-2): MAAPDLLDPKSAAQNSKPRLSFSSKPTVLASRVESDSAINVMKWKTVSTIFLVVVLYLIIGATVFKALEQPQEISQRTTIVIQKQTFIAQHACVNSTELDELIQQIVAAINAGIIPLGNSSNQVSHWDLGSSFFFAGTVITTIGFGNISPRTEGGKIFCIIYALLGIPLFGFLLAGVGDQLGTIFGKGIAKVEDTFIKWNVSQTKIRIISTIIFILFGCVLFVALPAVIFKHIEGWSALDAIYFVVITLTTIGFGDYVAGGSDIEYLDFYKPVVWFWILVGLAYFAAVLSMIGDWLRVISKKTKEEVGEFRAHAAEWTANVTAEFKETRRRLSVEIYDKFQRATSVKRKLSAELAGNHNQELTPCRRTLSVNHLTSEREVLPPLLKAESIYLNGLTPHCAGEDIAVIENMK
Experiment: Inside-out patch clamp of K2P2.1(TREK-1) in HEK293 cells
Assay type: cell-based
Design: expressed in transfected cells
Conditions: HEK293 inside-out patches, 150 mM K+[out]/150 mM Rb+[in], 1 μM
Text: Diverse types of physical and chemical stimuli activate K2P2.1(TREK-1) by stabilizing the C-type gate and switching the channel into a “leak” mode that is characterized by a loss of outward rectification of the potassium current.[6],[8] Accordingly, we used inside-out patch clamp experiments of K2P2.1(TREK-1) expressed in HEK293 cells to test whether BL-1249 acts on the C-type gate. […] Together with previous single point concentration studies showing the insensitivity of K2P2.1(TREK-1) W275S in mammalian cells,[40] our data provide definitive evidence that BL-1249 activates K2P2.1(TREK-1) by stimulating the C-type gate. Thus, this compound fits the mechanistic paradigm shared by varied types of activators including mechanical stretch, pH, lipids, and small molecules.[6],[8]
Mouse K2P2.1 was expressed from a previously described pIRES2-EGFP vector in HEK293T cells (ATCC CRL-1573). Cells at 70% confluence were transfected (in 35 mm diameter wells) using LipofectAMINE 2000 (Invitrogen) for 6 h and plated onto coverslips coated with Matrigel (BD Biosciences).
Voltage-dependent activation of K2P2.1 was recorded on excised patches in inside-out configuration (50 kHz sampling) in the absence and presence of 1 μM BL-1249. Pipette solution contained the following: 150 mM KCl, 3.6 mM CaCl2, 10 mM HEPES (pH 7.4 with KOH). […] Data were analyzed using Clampfit 9 and Origin 7.

SMILES: c1ccc(-c2nnn[nH]2)c(Nc2cccc3c2CCCC3)c1 [BL-1249, (5,6,7,8-tetrahydro-naphthalen-1-yl)-[2-(1H-tetrazol-5-yl)-phenyl]-amine]
- effect on outward rectification (C-type gate): clear loss of rectification
